Assay results published in patent US20230258624A1, “Ex vivo tumour immune microenvironment model, a method for preserving a tumour-specific immune cell profile in an ex vivo tumour immune microenvironment model and use of nanofibrillar cellulose” (UPM-Kymmene Corporation, priority 2022, published 2023).

Tested on: PDECs
Assay: Cytokine profiling (ELISA) of PDEC growth media
Format: cell-based, human
Experimental: Media (1 ml) collected from NFC-grown PDECs or PBMCs at day 3 and day 7 timepoints was stored at −80° C. until the day of analysis. […] Cell and matrix debris were removed after thawing by centrifugation (10 min, 10 000 G, RT). Cytokines secreted to growth media were analyzed with R&D DuoSetELISA kits (IL2: DY202-05, IL-10: DY217B-05, TNF-α: DY210-05, IFN-γ: DY285B-05, IL-4: DY204-05, IL-6: DY206-05, IL-1β/IL1F2: DY201-05, LAP (TGF-β1): DY246-05) together with DuoSet Ancillary Reagent Kit 2 (DY008), according to manufacturer's protocol. Briefly, plates were coated with capture antibody overnight at RT, washed 3 times and blocked with 1% BSA in PBS for 1 hour. Samples diluted in growth media were added and incubated for 2 hours at RT. After 3 washes, detection antibody was added and incubated for 2 hours at RT. After washes, Streptavidin-HRP was added and incubated for 20 min at RT, protected from light. After washes, Substrate solution was added for 20 min, protected from light, after which the reaction was stopped with stop solution and absorbance was immediately determined using a microplate reader set to 450 nm, and 540 nm to subtract background (Omega Fluostar, BMG Labtech).

Compound: O=C(O)CCCC[C@@H]1SC[C@@H]2NC(=O)N[C@@H]21 [biotin]
- amount of inflammatory cytokine IFN-γ (1 μM biotin added to PDEC growth media, NFC cultures): clearly decreased
- inflammatory cytokine secretion into the media (biotin added to growth media after functionalization of the matrix): clearly decreased
